According to the supplement of paper PMC11061612:

What was measured:
Assay in all cases: combination Emax (second highest fraction inhibited in the dose matrix, 72 h); higher = more inhibition; extreme values may be limits of the assay
[1] = system: A3-KAW (B-Cell Non-Hodgkin's Lymphoma)
Method in brief: (§1)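 Bliss excess equals the observed combination effect minus the expected value EA + EB − EA·EB, where EA and EB are the effects of each agent alone. Combination Emax is the second-highest inhibition within the matrix. Inhibition was scaled from CellTiter-Glo 2.0 luminescence, with 0 set by vehicle wells and 1 by blank wells, after 72 hours of two-drug dosing of cells plated in 1536-well plates.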

[2] = system: A549 (Lung Adenocarcinoma)
Method in brief: as §1

[3] = system: CAL-29 (Bladder Carcinoma)
Method in brief: as §1

[4] = system: CCK-81 (Colorectal Carcinoma)
Method in brief: as §1

[5] = system: ECC10 (Gastric Carcinoma)
Method in brief: as §1

[6] = system: FU97 (Gastric Carcinoma)
Method in brief: as §1

[7] = system: HCC1954 (Breast Carcinoma)
Method in brief: as §1

[8] = system: Hs-445 (Non-Cancerous)
Method in brief: as §1

[9] = system: IGR-37 (Melanoma)
Method in brief: as §1

[10] = system: MDST8 (Colorectal Carcinoma)
Method in brief: as §1

[11] = system: NCI-H1666 (Lung Adenocarcinoma)
Method in brief: as §1

[12] = system: NCI-H2591 (Mesothelioma)
Method in brief: as §1

[13] = system: ONS-76 (Other Solid Carcinomas)
Method in brief: as §1

[14] = system: OS-RC-2 (Kidney Carcinoma)
Method in brief: as §1

[15] = system: PANC-10-05 (Pancreatic Carcinoma)
Method in brief: as §1

[16] = system: SK-MES-1 (Squamous Cell Lung Carcinoma)
Method in brief: as §1

[17] = system: SK-MG-1 (Low Grade Glioma)
Method in brief: as §1

[18] = system: TT (Thyroid Gland Carcinoma)
Method in brief: as §1

[19] = system: U-2-OS (Osteosarcoma)
Method in brief: as §1

[20] = system: VCaP (Prostate Carcinoma)
Method in brief: as §1

Compound	combination Emax [1]	combination Emax [2]	combination Emax [3]	combination Emax [4]	combination Emax [5]	combination Emax [6]	combination Emax [7]	combination Emax [8]	combination Emax [9]	combination Emax [10]	combination Emax [11]	combination Emax [12]	combination Emax [13]	combination Emax [14]	combination Emax [15]	combination Emax [16]	combination Emax [17]	combination Emax [18]	combination Emax [19]	combination Emax [20]
CC1(C)CCC(CN2CCN(c3ccc(C(=O)NS(=O)(=O)c4ccc(NCC5CCOCC5)c([N+](=O)[O-])c4)c(Oc4cnc5[nH]ccc5c4)c3)CC2)=C(c2ccc(Cl)cc2)C1 [Venetoclax] + CCN(CCO)CCCOc1ccc2c(Nc3cc(CC(=O)Nc4cccc(F)c4)[nH]n3)ncnc2c1 [AZD2811] (first compound max 1 µM, 7x7, partner max 1 µM)	0.286	0.461	0.264	0.199	1	0.413	0.293	0.68	0.537	0.306	0.265	0.196	0.698	0.232	0.288	0.223	0.464	0.652	0.257	0.226
CCN(CCO)CCCOc1ccc2c(Nc3cc(CC(=O)Nc4cccc(F)c4)[nH]n3)ncnc2c1 [AZD2811] + C[C@@H]1COCCN1C2=NC(=NC(=C2)C3(CC3)[S@](=N)(=O)C)C4=C5C=CNC5=NC=C4 [AZD6738] (first compound max 1 µM, 7x7, partner max 10 µM)	0.968	0.775	0.67	0.891	0.876	0.373	0.39	0.832	0.711	0.724	0.28	0.315	0.908	0.429	0.389	0.668	0.515	0.475	0.642	0.289
CN(C)CCCOc1ccc(-c2ccc3ncc4c(c3c2)n(C2CCOCC2)c(=O)n4C)cn1 [AZD0156] + O=C(c1cc(Cc2n[nH]c(=O)c3ccccc23)ccc1F)N1CCN(C(=O)C2CC2)CC1 [Olaparib] (first compound max 3 µM, partner max 3 µM)	0.909	0.374	0.319	0.394	0.299	0.422	0.218	0.174	0.194	0.361	0.269	0.135	0.235	0.269	0.343	0.407	0.319	0.237	0.201	0.296
C=CCn1c(=O)c2cnc(Nc3ccc(N4CCN(C)CC4)cc3)nc2n1-c1cccc(C(C)(C)O)n1 [AZD1775] + C1CN(CCC1(C(=O)N[C@@H](CCO)C2=CC=C(C=C2)Cl)N)C3=NC=NC4=C3C=CN4 [Capivasertib] (first compound max 3 µM, partner max 3 µM)	0.987	0.664	0.839	0.85	0.746	0.471	0.914	0.855	0.813	0.704	0.55	0.178	0.76	0.406	0.594	0.781	0.591	0.264	0.665	0.647
COc1cc2c(cc1OCCCCCOc1cc3c(cc1OC)C(=O)N1C=C(C)C[C@H]1C=N3)N=C[C@@H]1CC(C)=CN1C2=O [SG3199] + O=C(c1cc(Cc2n[nH]c(=O)c3ccccc23)ccc1F)N1CCN(C(=O)C2CC2)CC1 [Olaparib] (first compound max 0.001 µM, 7x7, partner max 10 µM)	0.595	0.234	0.0858	0.184	0.102	0.156	0.165	0.086	0.0632	0.138	0.0849	0.118	0.206	0.0448	0.116	0.103	0.168	0.187	0.0914	0.0785
Cc1c2c(nn1C)CSCc1cc(n(C)n1)CSc1cc(c3ccccc3c1)OCCCc1c(C(=O)O)n(C)c3c-2c(Cl)ccc13 [AZD5991] + C1CN(CCC1(C(=O)N[C@@H](CCO)C2=CC=C(C=C2)Cl)N)C3=NC=NC4=C3C=CN4 [Capivasertib] (first compound max 1 µM, 7x7, partner max 3 µM)	1	0.379	0.342	0.918	0.721	0.485	0.996	0.988	0.207	0.269	0.274	0.191	0.249	0.256	0.357	0.262	0.444	0.366	0.219	1
